In patent US20260132103A1, “Bumetanide Derivatives for the Therapy of Stroke and Other Neurological Diseases/Disorders Involving NKCCs” (University of Pittsburgh - Of the Commonwealth System of …, priority 2018, published 2026):

Legend:
[1] = test system: transient focal cerebral ischemia (tMCAO) in mice; test: Brain infarct volume and swelling after transient focal cerebral ischemia (tMCAO); assay type: in vivo, mouse; conditions: 24 h reperfusion, i.p.
Procedure: (§1) FIGS. 1A-1C: Efficacy of NKCC1 inhibitors in reducing ischemic infarction, cerebral edema, and the post-stroke survival in normotensive mice after tMCAO (see Example 3). (1A) Experimental protocol and data collection. Transient middle cerebral artery occlusion (tMCAO) was induced in normal C57/b6 mice. DMSO, BMT (10 mg/kg body weight), STS5 (13 mg/kg) or STS66 (12 mg/kg) was administered via intraperitoneal injection (i.p.) as described in method. (1 B) Representative TTC staining images in normotensive mice at 24 h reperfusion with quantitative analysis of infarct volume. Data are mean±SD, n=6-13 (male, n=3-9; female, n=3-4, *p<0.05). Scale: 5 mm. (1C) Percentage hemisphere swelling at 24 h reperfusion. Data are mean±SD, n=6-13, *p<0.05. (1D) Body weight change during 1-14 days after tMCAO. Data are mean±SD, n=5-9 (male, n=4; female, n=2, *p<0.05). (1E) Survival curve during 1-14 day after tMCAO. Data are mean±SD, n=5-9 (male, n=3-7; female, n=2, *p<0.05).
(§2) Transient focal cerebral ischemia was induced in mice by intraluminal occlusion of the left middle cerebral artery (MCA) for 50 min as described previously (Chen H et al., 2005). Mice were anesthetized with 3% isoflurane in 70%: 30% N2O/O2 until they were unresponsive to the tail pinch test. Animals were then fitted with a nose cone blowing 1.5% isoflurane for anesthesia maintenance. The left common carotid artery was exposed and the occipital artery branches of the external carotid artery were isolated and coagulated. The internal carotid artery was isolated and the extracranial branch was dissected and ligated. A rubber silicon-coated monofilament suture (6-0) was introduced into the internal carotid artery lumen and gently advanced approximately 8-9 mm to block the MCA blood flow for 50 min. The rectal temperature was maintained at 37.0±0.5° C. during surgery through a temperature-controlled heating pad. Achievement of ischemia was confirmed by monitoring regional cerebral blood flow (rCBF) with laser speckle contrast imager (Pericam). For reperfusion, the suture was withdrawn after the MCAO. The incision was closed and the mouse recovered under a heating lamp to maintain the core temperature (36.0-37.0° C.) during the 30-60 min recovery period. After recovery, animals were returned to their cages with free access to food and water.
(§3) Vehicle: DMSO (2 ml/kg body weight/day), the NKCC1 inhibitor bumetanide (BMT, 10 mg/kg body weight/day in DMSO), bumetanide's prodrug STS5 (13 mg/kg body weight/day in DMSO), or the novel NKCC1 inhibitor STS66 according to the invention (12 mg/kg body weight/day in DMSO) was administered via intraperitoneal injection (i.p). The initial half dose of the drugs (BMT, STS5, STS66) was given at 3 h after the onset of reperfusion and the second half dose at 8 h reperfusion in the tMCAO model.
At 24 h post-reperfusion, mice were anesthetized with 5% isoflurane and then decapitated. Coronal brain slices (2 mm thickness) were stained with 1% 2,3,5-triphenyltetrazolium chloridemonohydrate (TTC) for 20-30 min and brain slices were scanned (Begum G et al., 2015). Ischemic lesions were traced in each slice in a blinded manner, and the total volume of infarction was calculated with correction for edema, as described by Swanson et al., 1990 using ImageJ software. Infarct areas were summed across all slices and multiplied by slice thickness to yield total infarct volume (mm^3). Brain swelling was determined with the following formula. For tMCAO: swelling (% contralateral hemispheric volume)=[(ipsilateral hemispheric volume)−(contralateral hemispheric volume)]/(contralateral hemispheric volume)×100, as described before (Guo Q G et al., 2009; Sunghee Cho et al., 2005).

[2] = test system: transient focal cerebral ischemia (tMCAO) in mice; test: Body weight and survival 1-14 days after tMCAO; assay type: in vivo, mouse
Procedure: as §1, §2, §3

## CCCCNc1cc(C(=O)OCCN(C)C)cc(S(N)(=O)=O)c1Oc1ccccc1 [STS5]
[1]; female mice only, STS5 13, STS66 12 mg/kg/day
  infarct volume in female mice: 46.9±5.0 mm^3
[1]; normotensive C57BL/6j mice, half dose at 3 h and 8 h reperfusion, BMT 10, STS5 13, STS66 12 mg/kg/day, mean±SD
  hemispheric edema (hemisphere swelling): 12.6±4.5%
[1]; normotensive C57BL/6j mice, male and female combined, half dose at 3 h and 8 h reperfusion, BMT 10, STS5 13, STS66 12 mg/kg/day, mean±SD
  infarct volume: 49.5±20.6 mm^3
[2]; 1-14 days after tMCAO, versus DMSO Veh control
  body weight changes: no differences in the body weight changes
[2]; between 1-14 days post tMCAO, BMT 10, STS5 13, STS66 12 mg/kg/day i.p.
  mortality rate: ~66.7%
